Results reported in ChEMBL document CHEMBL5223093, “Recent advances in the discovery of protein tyrosine phosphatase SHP2 inhibitors” (RSC Med Chem, 2022).

What was measured:
[1] = Downregulation of DUSP6 transcription in human KYSE-520 cells at 30 uM measured after 2 hrs relative to control; assay type: functional
[2] = target: T1, Tyrosine-protein phosphatase non-receptor type 11 (Homo sapiens, UniProt Q06124); test: Inhibition of full length SHP2 (unknown origin) using DiFMUP as substrate preincubated for 30 mins followed by substrate addition
T1 sequence (Q06124 whole entry): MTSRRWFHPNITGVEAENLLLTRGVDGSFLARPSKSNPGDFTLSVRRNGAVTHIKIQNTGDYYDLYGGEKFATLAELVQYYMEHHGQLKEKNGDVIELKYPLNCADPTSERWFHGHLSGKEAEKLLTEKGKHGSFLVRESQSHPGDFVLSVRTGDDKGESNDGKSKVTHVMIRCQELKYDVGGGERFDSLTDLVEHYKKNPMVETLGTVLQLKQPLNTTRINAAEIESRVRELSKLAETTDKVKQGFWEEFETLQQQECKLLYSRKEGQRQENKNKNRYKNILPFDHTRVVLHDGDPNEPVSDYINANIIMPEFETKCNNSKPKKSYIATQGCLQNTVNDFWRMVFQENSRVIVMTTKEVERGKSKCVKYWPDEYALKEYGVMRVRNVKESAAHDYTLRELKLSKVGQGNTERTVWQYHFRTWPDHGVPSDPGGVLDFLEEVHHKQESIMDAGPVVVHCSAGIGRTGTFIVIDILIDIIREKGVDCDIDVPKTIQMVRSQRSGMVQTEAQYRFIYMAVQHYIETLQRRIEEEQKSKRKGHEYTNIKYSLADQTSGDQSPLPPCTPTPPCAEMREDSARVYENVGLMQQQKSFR

Structure (SMILES)	Activity [1] [%]	IC50 [2] [nM]
COc1cccc(-c2nnc3n(Cc4ccccc4Cl)c(=O)c4ccccc4n23)c1O	65	
O=C(O)c1ccc(O)c(-c2nnc3n(Cc4ccccc4Cl)c(=O)c4ccccc4n23)c1	55	
COc1cccc(-c2nnc3n(Cc4ccc(C(=O)N5CCC[C@H]5C(=O)O)cc4Cl)c(=O)c4ccccc4n23)c1O	43	
Cc1nc(N2CCC3(CC2)OC[C@@H](C)[C@H]3N)c(CO)nc1-c1cccc(Cl)c1Cl		0.583
